The record followed here is patent US6444706B2, “Guanidine derivatives, processes for preparing them and their use as pharmaceutical compositions” (priority 1996, dated 2002).

For one test, the system named is herpes virus. The experiment in a line: Virus replication in infected cell cultures, plaque assay of supernatant. It is filed as cell-based. The settings on record: Fibroblast, herpes-infected monkey kidney cells or human fibroblasts, 24 hours, read-out: IC50 (concentration at which virus replication is inhibited by 50%). The method, then:
The virostatic properties were determined by in vitro tests. The following virus strains were used:
Cell cultures (monkey kidney cells or human fibroblasts) are infected with herpes and a series of cultures are exposed to medium containing various concentrations of the test substance. After 24 hours the concentration of the virus descendants in the cell culture supernatant is determined by plaque assays.

The test system of test [1] is acidic SMase (microsome fraction from macrophage). As to the kind of experiment: Inhibition of acidic SMase (14C sphingomyelin hydrolysis). In kind it is biochemical. As to conditions: pH 5.6, untreated = 100%. The protocol: ^14C sphingomyelin (10 μg/ml) were incubated with neutral SMase (membrane fraction isolated from mouse brains, 10 μg protein/mixture, according to Gatt, S. Biochem. Biophys. Res. Commun. 68, 235-241, 1976) or with acidic SMase (microsome fraction from macrophage 5 μg of protein/mixture isolated according to Gatt, S. Biochem. Biophys. Res. Commun. 68, 235-241, 1976) in the presence of various concentrations of the test substances, for 2 hours at 37° C. in 20 mM Tris, 1 mM MgCl2, pH 7.5 (neutral SMase) or in 50 mM sodium acetate, 1 mM MgCl2, pH 5.6 (acid SMase). Then the samples were extracted with 5 times the volume of chloroform/methanol (1:1) and the content of radioactive phosphorylcholine in the aqueous phase was determined. The release of phosphorylcholine in the untreated mixtures corresponds to 100% enzyme activity.
^14C-sphingomyelin (10 μg/ml) was incubated with neutral SMase (membrane fraction from mouse brain, 10 μg of protein/batch, isolated according to Gatt, S. Biochem. Biophys. Res. Commun. 68, 235-241, 1976) or with acid SMase (microsome fraction from macrophages 5 μg of protein per batch [isolated according to S. Gatt, Biochem. Biophys. Res. Commun. 68, 235-241, (1976)] in the presence of various concentrations of the test substances for 2 hours at 37° C. in 20 mM Tris, 1 mM MgCl2, pH 7.5 (neutral SMase) or in 50 mM sodium acetate, 1 mM MgCl2, pH 5.6 (acidic SMase). Then the samples were extracted with 5 times the volume of chloroform/methanol (1:1) and the content of radioactive phosphorylcholine in the aqueous phase was determined. The release of phosphorylcholine in the untreated batches corresponds to 100%.

Test [2] concerns endotoxin from E. coli (lethal endotoxic shock). The experiment in a line: Prevention of lethal endotoxic shock in the mouse by H2C11AG. In kind it is in vivo, mice of the Balb C strain. The settings on record: 100 mg/kg by oesophageal tube 2 hours before 0.7 mg endotoxin i.p., 10 animals, observed 12 days. The method, then:
10 mice of the Balb C strain (about 8 weeks old) were given 0.7 mg of endotoxin from E. coli (in 0.2 ml of isotonic saline solution) by intraperitoneal injection. 10 animals were given 100 mg/kg of H2C11AG (dissolved in twice distilled water) by oesphageal tube 2 hours before the LPS treatment. The control animals were given water.

For test [3], the target named is T1, neutral SMase (membrane fraction isolated from mice brains) (Mus musculus, UniProt Q9JJY3).
T1 construct: membrane fraction isolated from mice brains, 10 μg of protein/mixture [according to S. Gatt, Biochem. Biophys; Res. Commun; 68, 235-241 (1976)]
T1 sequence (Q9JJY3 1-655): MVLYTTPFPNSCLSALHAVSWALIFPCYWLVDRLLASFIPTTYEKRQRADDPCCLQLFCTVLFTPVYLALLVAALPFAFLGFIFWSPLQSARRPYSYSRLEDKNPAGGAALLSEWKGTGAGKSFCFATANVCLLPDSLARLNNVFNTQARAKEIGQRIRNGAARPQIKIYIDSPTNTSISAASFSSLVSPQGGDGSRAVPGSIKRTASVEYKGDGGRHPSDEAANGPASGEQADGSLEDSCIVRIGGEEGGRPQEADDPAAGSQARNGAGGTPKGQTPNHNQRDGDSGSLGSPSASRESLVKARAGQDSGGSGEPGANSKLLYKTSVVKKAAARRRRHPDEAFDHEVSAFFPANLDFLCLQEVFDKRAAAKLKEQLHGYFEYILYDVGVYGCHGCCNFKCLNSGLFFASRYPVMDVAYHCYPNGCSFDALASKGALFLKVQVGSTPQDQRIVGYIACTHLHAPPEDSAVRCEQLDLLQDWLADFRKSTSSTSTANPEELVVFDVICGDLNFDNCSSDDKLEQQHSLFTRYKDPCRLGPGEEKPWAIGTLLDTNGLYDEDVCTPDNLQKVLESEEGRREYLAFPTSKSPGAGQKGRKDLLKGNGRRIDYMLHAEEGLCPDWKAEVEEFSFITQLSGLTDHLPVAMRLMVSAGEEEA
As to the kind of experiment: Inhibition of neutral SMase (14C sphingomyelin hydrolysis). The settings on record: 2 h, pH 7.5, read-out: nSMase activity. In kind it is biochemical. The method, then: Then the samples were extracted with 5 times the volume of chloroform/methanol (1:1) and the content of radioactive phosphorylcholine in the aqueous phase was determined. The release of phosphorylcholine in the untreated mixtures corresponds to 100% enzyme activity.
The release of phosphorylcholine in the untreated batches corresponds to 100%.

For test [4], the system named is collagen-induced arthritis. As to the kind of experiment: Inhibition of collagen-induced arthritis in the mouse. It is filed as in vivo, DBA/I mice. The settings on record: for Total Symptoms: day 7 after booster injection, 10 animals. The protocol: An autoimmune reaction against cartilagenous tissue was produced by injecting collagen into DBA/I mice as described (Holmdahl, R. et al., Immunology, 65, 305-310, 1988). Groups of 10 animals were used as control or were given 50 mg/kg or 100 mg/kg of C11AG per day by oral route. The drug was administered in the food (Altromin, powdered food) and the dosage was calculated from the daily food intake. The symptoms were evaluated daily for each individual paw from 0.5-3 as described [R. Holmdahl, et al., Immunology, 65, 305-310, (1988)].
20 days after the booster injection the animals were killed and the joints were examined by histopathology resulting in the following picture: […]

Test [5] relates to endotoxin from E. coli (endotoxic shock). The experiment in a line: Protection from endotoxic shock by C11AG in mice. In kind it is in vivo, mice (strain NMRI/Nu). The settings on record: 50 mg/kg subcutaneously 30 minutes before 0.2 mg endotoxin i.p.; nine animals; all 10 controls died within 24 hours. The method, then:
Mice (strain NMRI/Nu, 8 weeks old, female) were each given 0.2 mg of endotoxin from E. coli (Sigma, Munich) by intraperitoneal route. The 10 control animals, who had been given 0.2 ml of 5% glucose subcutaneously, died within 24 hours. Nine animals were injected subcutaneously with 50 mg/kg of C11AG 30 minutes before the endotoxin treatment. Of this group, only 2 animals died.

Test [6] deals with RAW cells (mouse macrophage line). The experiment in a line: Inhibition of NO-synthase induction in macrophages (nitrite in culture medium). In kind it is cell-based. The settings on record: 10 ng/ml LPS, 16 hours, without C11AG 0.122. The protocol:
RAW cells (mouse macrophage line, origin: American Type Culture Collection) were treated with 10 ng/ml of endotoxin from E. coli (LPS) in the presence of different concentrations of C11AG. After 16 hours the nitrite content in the culture medium was measured using the method described [K. Tschaikowsky, M. Meisner, F. Schonhuber and E. Rugheimer, Br. J. Pharmacol. 113 (3): 664-8 (1994)].
The inhibition of NO-synthase induction is graphically shown in FIG. 3; the NO2 concentration [OD measured at 540 nm] is plotted against the C11AG concentration [μg/ml] for 10 ng/ml of LPS.

Consider `N=C(N)NN=Cc1c[nH]c2ccccc12` [1-(indol-3-ylmethylene-amino)guanidine, 1-(Indol-3-ylmethylene-amino)guanidine], for which the IC50 with herpes virus is 19.8 µM.
As to `CCCCCCCCCCCNNC(=N)N` [H2C11AG, 1-(undecylamino) guanidine], the aSMase activity in test [1] (1 μg/ml) came to 100%. Also, in test [1] (10 μg/ml), the aSMase activity worked out at 97%. For the same compound, the aSMase activity in test [1] (100 μg/ml) was 32%. The compound also displayed a survivors in test [2] (control 2 survivors) of 9. In test [2] (control 20%), the “survivors (%)” value is given as 90%. In test [3], the activity at 1 µg/mL was 73%, the activity at 10 µg/mL amounted to 22% and the activity at 100 µg/mL is 2%.
Consider `CCCCCCCCCCC=NNC(=N)N` [C11AG, 1-(undecylideneamino)guanidine], for which the results for the aSMase activity in test [1] (1 μg/ml), in test [1] (10 μg/ml) and in test [1] (100 μg/ml) were 101%, 102% and 31%, respectively. For the same compound, the “Total Symptoms” value was found to be 4.5 in test [4] (50 mg/kg per day oral in food) and 1 in test [4] (100 mg/kg per day oral in food). Moreover, the “histopathology of joints (inflammatory processes)” value in test [4] (50 and 100 mg/kg, 20 days after booster injection) is on record as “no such inflammatory processes could be detected”. Besides, the activity at 1 µg/mL in test [3] worked out at 61%. For the same compound, in test [3], the activity at 10 µg/mL is 18%. The activity at 100 µg/mL in test [3] is 0%. Also, in the test on herpes virus, the IC50 is 6.8 µM. For the same compound, in test [5], the animals died is on record as 2. Besides, the “OD 540 nm (nitrite content in culture medium)” value in test [6] (0.5 μg/ml C11AG) is given as 0.091; in test [6] (1 μg/ml C11AG) it was 0.075; in test [6] (2 μg/ml C11AG), 0.054; in test [6] (3 μg/ml C11AG), 0.05; in test [6] (4 μg/ml C11AG), 0.038.
Regarding `CCCCCCCC=NNC(=N)N` [1-(octylidene-amino)guanidine], the IC50 in the test on herpes virus came to 49.7 µM.
As to `N=C(N)NN=C1C=Cc2cccc3cccc1c23` [1-(phenalen-1-ylidene-amino)guanidine, 1-(Phenalen-1-ylidene-amino)guanidine], in the test with herpes virus, the IC50 was 45.4 µM.
Turning to `CCCCCCCCCCCC=NNC(=N)N` [1-(dodecylideneamino)guanidine], in the test with herpes virus, the IC50 was found to be 3.2 µM.
For `N=C(N)NN=Cc1c2ccccc2cc2ccccc12` [1-(Anthracen-9-ylmethylene-amino)guanidine], in the test on herpes virus, the IC50 amounted to 1.5 µM.
As to `CCCCCCCCC=NNC(=N)N` [1-(nonylidene-amino)guanidine], the IC50 in the test with herpes virus was 29 µM.
Same read-out and setting: under `CCCCCCCCCC=NNC(=N)N` [1-(decylidene-amino)guanidine] stands 28.9 µM.
